Consider one molecule from patent US20120252825A1, “BENEFICIAL EFFECTS OF COMBINATION THERAPY ON CHOLESTEROL” (Pfizer Inc., priority 2011, published 2012).

The subject of one assay is triglycerides. Conditions: FIG. 5.
The conditions of assay [1]: relative to Enrollment Visit. An excerpt: Table 2 presents the ACR20 (American College of Rheumatology 20% improvement in response rate) response rates (relative to Enrollment Visit, i.e., pre-TOFACITINIB treatment).
Another assay concerns HDL. The note with it: FIG. 2.
Another assay concerns Apolipoprotein A-1. Conditions: FIG. 3.
The subject of a further assay is total cholesterol. The note with it: FIG. 6.
The subject of the next assay is LDL-C. Conditions: for Percent Change from Baseline in LDL, adjusted mean: TOFACITINIB 10 mg BID.
The next assay concerns Apolipoprotein B. Conditions: FIG. 4.
Setting [2] is: following introduction of TOFACITINIB treatment.
[3] abbreviates: after Enrollment Visit (introduction of TOFACITINIB treatment).

Where two headings read alike, the source gives them in different places.

As for `C[C@@H]1CCN(C(=O)CC#N)C[C@@H]1N(C)c1ncnc2[nH]ccc12` [TOFACITINIB, 3-{(3R,4R)-4-Methyl-3-[methyl-(7H-pyrrolo-[2,3-d]pyrimidin-4-yl)-amino]-piperidin-1-yl}-3-oxo-propionitrile], the entries for the “triglycerides level, trend” value with triglycerides (after Baseline Visit) and with triglycerides (setting [2]) were “increases continue” and “increase”, respectively. Besides, the “ACR20 response rate, % of responders” value was 76.0% in assay [1] (Baseline (after 6 week treatment of TOFACITINIB 10 mg BID), atorvastatin group before add-on); 76.6% in assay [1] (Baseline (after 6 week treatment of TOFACITINIB 10 mg BID), placebo group before add-on); 65.2% in assay [1] (Week 12, after 6 week treatment of atorvastatin or placebo added on to TOFACITINIB 10 mg BID). Besides, the “ACR20 response, number of responders” value amounted to 38 in assay [1] (Baseline (after 6 week treatment of TOFACITINIB 10 mg BID), atorvastatin group before add-on, N 50); 36 in assay [1] (Baseline (after 6 week treatment of TOFACITINIB 10 mg BID), placebo group before add-on, N 47); 30 in assay [1] (Week 12, after 6 week treatment of atorvastatin or placebo added on to TOFACITINIB 10 mg BID, N 46). The “HDL level, trend” value was “slight upward trend” in the assay on HDL (after Baseline Visit) and “increase” with HDL (following the Enrollment Visit). Further, the figures for the “Apolipoprotein A-1 level, trend” value in the assay with Apolipoprotein A-1 (after Baseline Visit) and in the assay on Apolipoprotein A-1 (setting [2]) were “slightly trend upward” and “increases”, respectively. In the assay with total cholesterol (after Baseline Visit), the “total cholesterol level, trend” value was “slightly increasing trend”. Besides, the “median total cholesterol level, trend” value in the assay on total cholesterol (setting [3]) is listed as “increase”. The “Percent Change from Baseline in LDL, adjusted mean” value in the assay with LDL-C (Week 10) came to 5.5%; in the assay with LDL-C (Week 12 (primary endpoint)), 5.8%. The “baseline LDL-C mean” value in the assay on LDL-C (after 6 weeks treatment with TOFACITINIB, placebo/TOFACITINIB treatment group, before placebo was added) worked out at 138.26 mg/dL. In addition, in the assay on LDL-C (after Baseline Visit, FIG. 1), the “LDL level, trend” value is “slightly increasing trend”. Besides, the “median LDL-C level, trend” value in the assay with LDL-C (after Enrollment Visit (introduction of TOFACITINIB treatment), FIG. 1) is recorded as “increase”. The molecule also displayed an LDL-C mean in the assay on LDL-C (week 12, 6 weeks following randomization) of 142.61 mg/dL. Also, the “Apolipoprotein B level, trend” value in the assay with Apolipoprotein B (after Baseline Visit) was “slightly increasing trend”. Also, the “median Apolipoprotein B level, trend” value with Apolipoprotein B (setting [3]) is reported as “increase”.
